Assay results: ChEMBL document CHEMBL5143665, “Discovery and preclinical evaluations of WX-0593, a novel ALK inhibitor targeting crizotinib-resistant mutations” (Bioorg Med Chem Lett, 2022)
pIC50: −log10 of the molar value. Each block holds one compound with its values, some of them ahead of it.

Columns and labels:
KARPAS-299 = assay: cells; conditions: Homo sapiens
Description: Antiproliferative activity against human KARPAS-299 cells harbouring wild type ALK assessed as reduction in cell viability by Celltitre-Glo luminescent assay

[1] = Half-life in mouse at 1 mg/kg, iv; type: ADME, organism-based; conditions: in vivo
[2] = Oral bioavailability in mouse at 10 mg/kg; type: ADME, organism-based; conditions: in vivo
[3] = Cmax in mouse at 10 mg/kg, po; type: ADME, organism-based; design: dose 10 mg/kg, route po; conditions: in vivo
[4] = Volume of distribution at steady state in mouse at 1 mg/kg, iv; type: ADME, organism-based; conditions: in vivo, read-out: Vdss
[5] = AUC (0 to last) in mouse at 10 mg/kg, po; type: ADME, organism-based; design: time 0 - last, dose 10 mg/kg, route po; conditions: in vivo
[6] = Clearance in mouse at 1 mg/kg, iv; type: ADME, organism-based; conditions: in vivo
cells [7] = conditions: Mus musculus, Ba/F3 EML4-ALK-G1202R, 72 h
BaF3 [8] = assay: Antiproliferative activity against crizotinib resistant mouse BaF3 cells expressing EML4 fused ALK I1171N mutant assessed as reduction in cell viability incubated for 72 hrs by Celltitre-Glo luminescent assay; type: functional, cell-based; conditions: BaF3, 72 h
BaF3 [9] = assay: Antiproliferative activity against crizotinib resistant mouse BaF3 cells expressing EML4 fused ALK L1152P mutant assessed as reduction in cell viability incubated for 72 hrs by Celltitre-Glo luminescent assay; type: functional, cell-based; conditions: BaF3, 72 h
BaF3 [10] = assay: Antiproliferative activity against crizotinib resistant mouse BaF3 cells expressing EML4 fused ALK L1152R mutant assessed as reduction in cell viability incubated for 72 hrs by Celltitre-Glo luminescent assay; type: functional, cell-based; conditions: BaF3, 72 h
cells [11] = conditions: Mus musculus, Ba/F3 EML4-ALK, 72 h
BaF3 [12] = assay: Antiproliferative activity against crizotinib resistant mouse BaF3 cells expressing EML4 fused ALK F1174C mutant assessed as reduction in cell viability incubated for 72 hrs by Celltitre-Glo luminescent assay; type: functional, cell-based; conditions: BaF3, 72 h
BaF3 [13] = assay: Antiproliferative activity against mouse BaF3 cells harbouring SLC34A2-ROS1-L2026M mutant assessed as reduction in cell viability incubated for 72 hrs by Celltitre-Glo luminescent assay; type: functional, cell-based; conditions: BaF3, 72 h
cells [14] = conditions: Mus musculus, BaF3, 72 h
cells [15] = conditions: Mus musculus, BaF3, 72 h; remark: listed apart in the source
cells [16] = conditions: Mus musculus, BaF3, 72 h; remark: listed apart in the source
BaF3 [17] = assay: Antiproliferative activity against crizotinib resistant mouse BaF3 cells expressing EML4 fused ALK I1171T mutant assessed as reduction in cell viability incubated for 72 hrs by Celltitre-Glo luminescent assay; type: functional, cell-based; conditions: BaF3, 72 h
BaF3 [18] = assay: Antiproliferative activity against mouse BaF3 cells harbouring CD74-ROS1-S1986Y mutant assessed as reduction in cell viability incubated for 72 hrs by Celltitre-Glo luminescent assay; type: functional, cell-based; conditions: BaF3, 72 h
BaF3 [19] = assay: Antiproliferative activity against crizotinib resistant mouse BaF3 cells expressing EML4 fused ALK I1171S mutant assessed as reduction in cell viability incubated for 72 hrs by Celltitre-Glo luminescent assay; type: functional, cell-based; conditions: BaF3, 72 h
BaF3 [20] = assay: Antiproliferative activity against crizotinib resistant mouse BaF3 cells expressing EML4 fused ALK V1180L mutant assessed as reduction in cell viability incubated for 72 hrs by Celltitre-Glo luminescent assay; type: functional, cell-based; conditions: BaF3, 72 h
BaF3 [21] = assay: Antiproliferative activity against mouse BaF3 cells harbouring CD74-ROS1-D2033N mutant assessed as reduction in cell viability incubated for 72 hrs by Celltitre-Glo luminescent assay; type: functional, cell-based; conditions: BaF3, 72 h
BaF3 [22] = assay: Antiproliferative activity against mouse BaF3 cells harbouring CD74-ROS1-S1986F mutant assessed as reduction in cell viability incubated for 72 hrs by Celltitre-Glo luminescent assay; type: functional, cell-based; conditions: BaF3, 72 h
BaF3 [23] = assay: Antiproliferative activity against crizotinib resistant mouse BaF3 cells expressing EML4 fused ALK F1174V mutant assessed as reduction in cell viability incubated for 72 hrs by Celltitre-Glo luminescent assay; type: functional, cell-based; conditions: BaF3, 72 h
BaF3 [24] = assay: Antiproliferative activity against crizotinib resistant mouse BaF3 cells expressing EML4 fused ALK T1151Tins mutant assessed as reduction in cell viability incubated for 72 hrs by Celltitre-Glo luminescent assay; type: functional, cell-based; conditions: BaF3, 72 h
[25] = Clearance in Balb/c nude mouse at 1 mg/kg, iv; type: ADME, organism-based; conditions: in vivo
BaF3 [26] = assay: cells; conditions: Mus musculus
Description: Antiproliferative activity against mouse BaF3 cells harbouring ALK wild type assessed as reduction in cell viability by Celltitre-Glo luminescent assay

BaF3 [27] = assay: cells; conditions: Mus musculus; remark: listed apart in the source
Description: Antiproliferative activity against mouse BaF3 cells harbouring ALK L1196M mutant assessed as reduction in cell viability by Celltitre-Glo luminescent assay

BaF3 [28] = assay: cells; conditions: Mus musculus; remark: listed apart in the source
Description: Antiproliferative activity against mouse BaF3 cells harbouring ALK C1156Y mutant assessed as reduction in cell viability by Celltitre-Glo luminescent assay

- half-life [1]: 1.1 h
- bioavailability [2]: 1.2%
- pIC50 (KARPAS-299): 6.90
- Cmax [3]: 28.7 ng/mL
- Vd [4]: 3.1 L/kg
- AUC(0-t) [5]: 27.7 ng·h/mL
- clearance [6]: 69 mL/min/kg
SMILES: COc1cc(N2CCC3(CNC3)C2)ccc1Nc1ncc(Cl)c(Nc2ccccc2P(C)(C)=O)n1

- half-life [1]: 1.5 h
- bioavailability [2]: 5.2%
- pIC50 (KARPAS-299): 7.22
- Cmax [3]: 113 ng/mL
- Vd [4]: 1.7 L/kg
- AUC(0-t) [5]: 219 ng·h/mL
- clearance [6]: 49 mL/min/kg
SMILES: COc1cc(N2CCC3(CC2)CNC3)ccc1Nc1ncc(Cl)c(Nc2ccccc2P(C)(C)=O)n1

- pIC50 (KARPAS-299): 7.11
SMILES: COc1cc(N2CCC3(CCNC3)CC2)ccc1Nc1ncc(Cl)c(Nc2ccccc2P(C)(C)=O)n1

More lines, now with the values behind:

SMILES: COc1cc(N2CCC3(CCN(C)CC3)CC2)c(F)cc1Nc1ncc(Cl)c(Nc2ccccc2P(C)(C)=O)n1
- pIC50 (KARPAS-299): 7.82

SMILES: COc1cc(N2CCC(N3CCN(C)CC3)CC2)ccc1Nc1ncc(Cl)c(Nc2ccccc2P(C)(C)=O)n1 [BRIGATINIB]
- pIC50 (cells [7]): 6.47
- pIC50 (BaF3 [8]): 7.46
- pIC50 (BaF3 [9]): 9.00
- pIC50 (BaF3 [10]): 8.00
- pIC50 (cells [11]): 7.60
- pIC50 (BaF3 [12]): 7.01
- pIC50 (BaF3 [13]): 7.32
- pIC50 (cells [14]): 7.66
- pIC50 (cells [15]): 7.51
- pIC50 (cells [16]): 7.51
- pIC50 (BaF3 [17]): 7.72
- pIC50 (BaF3 [18]): 7.92
- pIC50 (BaF3 [19]): 7.03
- pIC50 (BaF3 [20]): 8.00
- pIC50 (BaF3 [21]): 7.44
- pIC50 (BaF3 [22]): 7.70
- pIC50 (BaF3 [23]): 7.33
- pIC50 (BaF3 [24]): 7.46

SMILES: COc1cc(N2CCC3(CCN(C)CC3)CC2)ccc1Nc1ncc(Cl)c(Nc2ccccc2P(C)(C)=S)n1
- pIC50 (KARPAS-299): 7.52
- clearance [25]: 61 mL/min/kg
- pIC50 (BaF3 [26]): 8.30
- pIC50 (BaF3 [27]): 8.10
- pIC50 (BaF3 [28]): 7.92

SMILES: CN1CCC2(CC1)CCN(c1ccc(Nc3ncc(Cl)c(Nc4ccccc4P(C)(C)=O)n3)c(OC(F)F)c1)CC2
- pIC50 (KARPAS-299): 7.82
- pIC50 (BaF3 [26]): 7.62
- pIC50 (BaF3 [27]): 7.41
- pIC50 (BaF3 [28]): 7.44
